Measured values reported in US20090029984A1 (priority 2005, published 2009).
Where “and” joins values, the source holds several entries; their conditions need not be identical. Equal entries are not always repeated. Entries after “also recorded” stand apart in the source; their conditions may differ. Where two headings read alike, the source gives them in different places.

Assays:
[1] = system: mice; details: mouse, in vivo
[2] = target: T1, human CB2 receptor (Homo sapiens, UniProt P34972); assay: Efficacy and potency at the human CB2 receptor expressed in CHO cells (cAMP, forskolin); type: cell-based
T1 construct: expressed in transfected cells; host or cells: CHO cells
T1 sequence (P34972 whole entry): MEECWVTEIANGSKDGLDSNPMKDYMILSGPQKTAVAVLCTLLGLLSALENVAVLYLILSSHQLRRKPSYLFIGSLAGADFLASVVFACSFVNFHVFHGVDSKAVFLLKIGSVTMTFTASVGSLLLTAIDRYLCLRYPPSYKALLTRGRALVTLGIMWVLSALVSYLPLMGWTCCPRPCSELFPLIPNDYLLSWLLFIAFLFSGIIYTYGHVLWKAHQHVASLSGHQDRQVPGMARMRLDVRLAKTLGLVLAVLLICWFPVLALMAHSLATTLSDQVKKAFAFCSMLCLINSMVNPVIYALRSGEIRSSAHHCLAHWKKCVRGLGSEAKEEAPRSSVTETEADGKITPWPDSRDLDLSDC

[3] = rat, cited from earlier work

COc1ccc2c3c1O[C@H]1[C@@H](O)C=C[C@H]4[C@@H](C2)N(C)CC[C@@]341 [Codeine, reference compound]
% of MPE ([1]; iv): 44.2%
Tail flick latency (s) + s.e.m. at Tmax ([1]; iv): 6.95 ± 0.84 s

CCOC(=O)c1c(C)cc2nc(COC(=O)NCCO)n(-c3ccccc3S(=O)(=O)NC)c(=O)c2c1C [Compound 1a, 2-(2-Hydroxy-ethylcarbamoyloxymethyl)-5,7-dimethyl-3-(2-methylsulfamoylphenyl)-4-oxo-3,4-dihydro-quinazoline-6-carboxylic acid ethyl ester]
EC50 [2]: 3.5 nM
Emax ([2]; CHO, relative to maximal response (100%) obtained with CP 55940, human CB2): 107%
effect on tail flick latency (in words) [1]: had no effect on tail flick latency
effect on tail flick latency (in words) ([1]; iv): had no effect on tail flick latency; also recorded: did not increase the tail flick latency
time of maximum effect post-injection ([1]; iv): 40 min

Cl.O=C(NCCO)[C@H]1CCCN(Cc2nc(-c3cn(CC4CCS(=O)(=O)CC4)c4c(Cl)cccc34)ns2)C1 [Compound 2, (S)-7-Chloro-3-[(5-{[3-N-(2-hydroxyethyl)carboxamido]piperidin-1-yl}methyl)([1,2,4]-thiadiazol-3-yl)]-1-(1,1-dioxo-hexahydrothiopyran-4-yl)methyl-1H-indole, hydrochloride salt]
combination versus opioid on its own (in words) [1]: significantly different
time of maximum effect post-injection ([1]; iv): 20 min
effect of co-administration on tail flick latency (in words) ([1]; iv, hydrochloride salt): increased tail flick latency in a dose-dependent manner; also recorded: dose-dependent potentiation

Cc1c(C(=O)c2cccc3ccccc23)c2cccc3c2n1[C@H](CN1CCOCC1)CO3 [WIN55, 212-2]
brain-to-plasma ratio ([3]; Dyson et al 2005): 1.3-1.9

C=C(C)[C@@H]1CCC(C)=C[C@H]1c1c(O)cc(CCCCC)cc1O [cannabidiol]
brain-to-plasma ratio ([3]; Alozie et al 1980): 2.61

CCCCCc1cc(O)c2c(c1)OC(C)(C)c1ccc(C)cc1-2 [cannabinol]
brain-to-plasma ratio ([3]; Alozie et al 1980): 0.88

CN1CC[C@]23c4c5ccc(O)c4O[C@H]2[C@@H](O)C=C[C@H]3[C@H]1C5 [morphine, reference compound]
% of MPE ([1]; iv): 47.7% and 42.9%

CCCCCc1cc(O)c2c(c1)OC(C)(C)[C@@H]1CCC(C)=C[C@@H]21 [Δ^9THC, Δ^9-tetrahydrocannabinol]
brain-to-plasma ratio ([3]; Alozie et al 1980): 0.96
brain-to-plasma ratio ([3]; Dyson et al 2005): 1.0
